Assay results from patent publication US20170348337A1, “MULTIFUNCTIONAL MEMBRANE-ACTIVE AMINOGLYCOSIDE-PEPTIDE CONJUGATES” (priority 2014, published 2017).
In brackets after ≈: the same amount, converted by molar mass. Entries after “also recorded” stand apart in the source; their conditions may differ. Like-named read-outs stand apart in the source and are kept apart here.

Columns and labels:
[1] = system: P. aeruginosa; assay: antimicrobial activity (MIC) of P-L-A conjugates; format: cell-based
[2] = system: S. aureus S113 persister cells; assay: persister cell plate killing assay; format: cell-based, Staphylococcus aureus; conditions: 1.5 h
Procedure: Procedure for preparing S. aureus SA113 and E. coli Dh5α persister cells were based on previous protocols. Cells from freshly streaked agar plates were inoculated in 1 mL TSB and incubated 16 h at 37° C. in a shaker incubator to obtain stationary phase cultures. Non-persister cells were eliminated by adding ampicillin to a final concentration of 100 μg/mL, followed by 3 h incubation at 37° C.
S. aureus cells were diluted 10× into 10 mM Pipes at pH 7.4 buffer for a bacteria stock solution of roughly 10^9 CFU/mL. 20 μL S. aureus suspension was introduced into 180 μL Pipes buffer containing various concentrations of antibiotic (Pentobra, tobramycin) in 96 well plates for a total of ˜10^8 CFU/well. The plates were sealed with parafilm, loaded onto microplate shakers and placed in 37° C. incubator for 1.5 h. After incubation, 10-fold serial dilutions were made in Pipes buffer. Half of each dilution (100 μL) was spotted onto LB agar plates and incubated overnight at 37° C. to yield visible colonies. The S. aureus persister assays were performed in triplicate. The data shown are averages from two independent trials and were representative of the three assays.
The bactericidal effects of Pentobra against persistent bacteria were investigated with plate killing assays. […]

[3] = system: P. acnes clinical isolates; assay: P. acnes CFU assay, clinical isolates; format: cell-based, Propionibacterium acnes
[4] = system: S. aureus; assay: antimicrobial activity (MIC) of P-L-A conjugates; format: cell-based
[5] = system: Vancomycin-Resistant Enterococci (VRE); assay: microbe, parasite or virus in culture; format: cell-based; conditions: Enterococcus, read-out: MIC
Text: (§1) Pentobra was screened against a broad panel of microbial pathogens, including strains of E. coli, MRSA, Klebsiella (Kleb), Acinetobacter (AcB), Vancomycin-Sensitive Enterococci (VSE) and Vancomycin-Resistant Enterococci (VRE), and specifically including E. faecalis samples. […] The experimenter reported the minimum inhibitory concentration (MIC) in mass units per unit volume (μg/mL) for each compound, and MIC data were converted into molar concentrations (μM) due to the large difference between the molecular weight of tobramycin (467.5 g/mol) and Pentobra (2277 g/mol).

[6] = system: Acinetobacter (AcB); assay: microbe, parasite or virus in culture; format: cell-based; conditions: Acinetobacter; isolate AcB, PM1434; read-out: MIC
Text: as §1

[7] = system: Klebsiella (Kleb); assay: microbe, parasite or virus in culture; format: cell-based; conditions: Klebsiella; isolate Kleb, W6921701-1; read-out: MIC
Text: as §1

[8] = system: MRSA; assay: microbe, parasite or virus in culture; format: cell-based; conditions: isolate MRSA
Text: as §1

[9] = system: E. coli; assay: microbe, parasite or virus in culture; format: cell-based; conditions: Escherichia coli
Text: as §1

[10] = system: P. acnes in comedone extracts; assay: microcomedone assay (human comedone extracts); format: cell-based, Propionibacterium acnes; conditions: similar drug concentrations (FIG. 11C)
[11] = system: E. coli ML35; assay: E. coli ML35 cell permeabilization assay (ONPG→ONP conversion); format: cell-based; conditions: 90 min, 37° C.
Procedure: E. coli ML35 [lacZ-(Con) ΔlacY] cannot take up the lactose mimic ONPG unless cell membrane integrity is compromised. Upon membrane permeabilization ONPG can diffuse into the bacterial cell cytoplasm where it is hydrolyzed by β-galactosidase into galactose and ONP. Since ONP absorbs at 400 nm, the permeabilization kinetics of membrane-disrupting agents can be monitored by OD400 absorbance measurement. Methodology here was very similar to previous studies. Log-phase E. coli cells were grown as described above, washed and resuspended in 10 mM Tris supplemented with 0.01 volume (1% vol/vol) TSB at pH 7.4 (Tris-TSB). In triplicate, bacteria (5×10^6 cells/well) were exposed to various concentrations of antibiotic (Pentobra, tobramycin, Pen peptide) in the presence of 2.5 mM ONPG for 90 min at 37° C. The kinetics of ONPG hydrolysis were measured by determining the absorbance at 400 nm using a plate reader spectrophotometer.
To characterize the membrane activity of Pentobra on bacteria, its permeabilization kinetics were monitored on live cells by conducting an enzymatic assay for the conversion of ortho-nitrophenyl β-D-galactopyranoside (ONPG) to ortho-nitrophenol (ONP) on the E. coli strain ML35. E. coli ML35 [lacZ-(Con) ΔlacY] constitutively expresses β-galactosidase (β-gal) but lacks the lactose permease necessary for uptake of the lactose analogue ONPG. […]

NC[C@H]1O[C@H](O[C@H]2[C@H](O)[C@@H](O[C@H]3O[C@H](CO)[C@@H](O)[C@H](N)[C@H]3O)[C@H](N)C[C@@H]2N)[C@H](N)C[C@@H]1O [tobramycin]
MIC ([1]; Pseudomonas aeruginosa, read-out: MIC (μM) P. aeruginosa (stationary)): 6.25 µM (≈ 2.92 µg/mL) | MIC (μM) P. aeruginosa (mid-log) ([1]; mid-log): 0.78-3.12 μM | reduction in CFU ([2]; range of tested concentrations): less than one | killing activity against persister cells ([2]; varying concentrations): little susceptibility | antimicrobial activity ([3]; isolates HL063PA2, HL110PA1, HL110PA4): did not exhibit significant antimicrobial activity | bactericidal activity ([3]; strain HL005PA1): strongly bactericidal | activity compared with Pentobra ([3]; strains HL053PA2 and HL043PA1): significantly less active | MIC (μM) S. aureus (mid-log) [4]: 3.12 μM | MIC ([5]; VRE, isolate F6541102, VRE): > 274 µM | MIC ([5]; VRE, isolate H6926031, VRE*): 68 µM (≈ 31.8 µg/mL) | MIC ([5]; VRE, isolate M6865034, VRE): > 274 µM | MIC ([5]; VRE, isolate S3899836, VRE^? (second entry)): > 274 µM | MIC ([5]; VRE, isolate VRE, 24670): > 274 µM | MIC ([5]; VRE, isolate VRE, S3899836): > 274 µM | MIC ([5]; isolate 24670, VRE^? (second entry)): > 274 µM | MIC [6]: 34 µM (≈ 15.9 µg/mL) | MIC [7]: 68 µM (≈ 31.8 µg/mL) | MIC ([8]; Staphylococcus aureus, F2806774, read-out: MIC): > 274 µM | MIC ([8]; H2867813): >274 µM | MIC ([9]; ATCC25922, isolate ATCC 25922, Ecoli (second entry), read-out: MIC): 2 µM (≈ 0.935 µg/mL) | MIC ([9]; isolate ATCC Ecoli, 25922 (first entry)): 2 µM (≈ 0.935 µg/mL) | MIC ([9]; isolate Ecoli,YD461, read-out: MIC): 34 µM (≈ 15.9 µg/mL) | reduction in CFU [10]: less than ten | inner membrane permeabilization (400 nm absorbance, ONPG→ONP) [11]: no membrane permeabilization occurred; also recorded: comparable to background
